According to PMC8178808, “Exploring conformational preferences of proteins: ionic liquid effects on the energy landscape of avidin” (Chemical Science, 2020):

Biological target: T1, avidin (unmodified, native) (Gallus gallus, UniProt P02701)
T1 construct: gene AVD; natural secreted glycoprotein from egg white (mature chain, signal peptide removed), commercial lyophilised (Merck), untagged; homotetramer, one ligand site per monomer
Assay: UV-Vis titration at […] nm, non-linear regression (Hill-Langmuir)
Assay type: binding
Details: read-out: Unmodified avidin / K d (×10^-5 mol dm^-3)

T1 sequence (P02701 25-152): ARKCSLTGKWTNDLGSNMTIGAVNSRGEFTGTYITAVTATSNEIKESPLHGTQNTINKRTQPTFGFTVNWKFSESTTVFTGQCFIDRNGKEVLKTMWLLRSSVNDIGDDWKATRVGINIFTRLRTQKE

In the case of `O=C(O)c1ccccc1N=Nc1ccc(O)cc1` [HABA], the Kd is reported as 11 µM.
